Experiment: Protective effect on dexamethasone-induced myotube cell damage (MTT assay)
Assay type: cell-based
Conditions: mouse, C2C12 cells differentiated into myotubes, 5 μM dexamethasone alone, read-out: decrease of cell viability compared to the control group not treated with dexamethasone
Experimental: C2C12 cells, a myoblast derived from mouse skeletal muscle, were purchased from American Type Culture Collection (ATCC) and used. C2C12 cells were cultured in a 37° C.-wet CO2 incubator (5% CO2/95% air) using a cell culture medium in which 10% fetal bovine serum (FBS), 100 units/mL penicillin, and 100 μg/mL streptomycin were added to Dulbecco's Modified Eagle Medium (DMEM). When the cells were 80% full, the cell monolayer was washed with phosphate buffer saline (PBS, pH 7.4), trypsin-2.65 mM EDTA was added thereto, and the cells were detached and subcultured, and the medium was exchanged every 2 days. In order to induce differentiation into myotubes of C2C12 cells, the cells were cultured by exchange with a myocyte differentiation culture medium in which 2% horse serum (HS) was added to DMEM medium, and the myocyte differentiation culture medium was exchanged every 2 days.
C2C12 cells were seeded in 24-well plate at 5×10^4 cells/well and cultured for 24 hours. Thereafter, in order to induce differentiation into myotubes of C2C12 cells, the cell culture medium was exchanged with the myocyte differentiation culture medium to induce differentiation for 4 days. […] After the cells were cultured for 24 hours, MTT assay was performed in the same manner as described above to measure the cell viability.

Work on `C[C@@H]1C[C@H]2[C@@H]3CCC4=CC(=O)C=C[C@]4(C)[C@@]3(F)[C@@H](O)C[C@]2(C)[C@@]1(O)C(=O)CO` [dexamethasone] yielded a cytotoxicity at 24 h, 5 μM of ~10%.
